According to paper PMC3542062, “A phenyl-thiadiazolylidene-amine derivative ejects zinc from retroviral nucleocapsid zinc fingers and inactivates HIV virions” (Retrovirology, 2012):

How the values were obtained:
NL4.3/WT = experiment: GFP-assay in Jurkat A72 (LTR-GFP) cells; format: cell-based, HIV-1; settings: Human immunodeficiency virus 1, Jurkat, 72 h, read-out: EC50 NL4.3/WT
VSV = format: cell-based
UG275 subtype A = experiment: Virucidal assay on clinical isolates, titration on PBMCs; format: cell-based, HIV-1; settings: 125 μM, 1 h 37°C, untreated control 16242
HSV = experiment: Activity against replication of non-retroviruses; format: cell-based
UG270 subtype D = experiment: Virucidal assay on clinical isolates, titration on PBMCs; format: cell-based, HIV-1; settings: 125 μM, 1 h 37°C, untreated control 25781
BCF-Dioum subtype G = experiment: as above; format: cell-based, HIV-1; settings: 125 μM, 1 h 37°C, untreated control 25781
HIV-1 virus particles [1] = experiment: Virion-associated genomic RNA of pre-treated virus (RT-qPCR, Northern blot); settings: compound-cleared HIV-1 virus stock, RT-qPCR or Northern blot
VZV = experiment: Activity against replication of non-retroviruses; format: cell-based
BZ163 subtype F = experiment: Virucidal assay on clinical isolates, titration on PBMCs; format: cell-based, HIV-1; settings: 125 μM, 1 h 37°C, untreated control 16242
RSV = experiment: Activity against replication of non-retroviruses; format: cell-based
HIV-2 ROD = experiment: Virucidal assay: virus pre-incubated with compound, diluted, titrated on MT-4 cells; settings: for CCID50/ml HIV-2 ROD: no drug 5.4 × 10^6
AZTR HIV-1 strain = experiment: GFP-assay in Jurkat A72 (LTR-GFP) cells; format: cell-based; settings: Human immunodeficiency virus 1, Jurkat, 72 h, read-out: EC50 AZTR
ETH2220 subtype C = experiment: Virucidal assay on clinical isolates, titration on PBMCs; format: cell-based, HIV-1; settings: 125 μM, 1 h 37°C, untreated control 64969
HIV-1 IIIB [2] = experiment: GFP-assay in Jurkat A72 (LTR-GFP) cells; format: cell-based; settings: Human immunodeficiency virus 1, IIIB, 72 h, 3 days after infection
NC(11-55) [3] = experiment: Zinc ejection monitored by supramolecular mass spectrometry; format: biochemical, HIV-1; settings: non-denaturing MS, Vc = 20 V, Pi = 6 mbar
Protocol: Purity and homogeneity of NC(11-55) were verified by mass analysis in denaturing conditions. In these acidic conditions, zinc is released from the peptide; and a molecular weight of 5137. 7 ± 0.4 Da was measured, in agreement with the expected mass of the zinc-free NC form (5137.9 Da). […] This is in contrast to the earlier discovered DIBA zinc ejectors for which the Zn ejection is accompanied by the formation of covalent complexes formed between the compound and Cys residues of Zn-depleted NCp7 [25].
Figure 5 Zinc ejection as monitored by mass spectrometry. […] Under non-denaturing conditions (Vc = 20 V, Psi = 6 mbar), the mass measured for NCp7(11-55) alone is 5264.0 Da corresponding to the NC peptide complexed with two zinc ions.
Before mass spectrometry (MS) analysis, NC(11-55) was dissolved and buffer exchanged with 50 mM ammonium acetate pH 7.0 using 4 cycles of microcentrifuge size exclusion filtering (Vivaspin 500 5kD, Sartorius Stedim biotech, Aubagne, France) and peptide concentration was measured by a Bradford assay. […]
Analyses under non-denaturing conditions were carried out after careful optimization of instrumental settings to avoid dissociation of noncovalent bonds and obtain sensible detection of protein/zinc complexation states. […] Peak intensities were used to estimate the ratios of the different ions detected.

NC(11-55) [4] = experiment: Inhibition of NC(11-55)-induced destabilization of cTAR (Rh6G-cTAR-Dabcyl fluorescence); format: biochemical, HIV-1
Protocol: The NCp7-induced destabilization of cTAR can be sensitively monitored by using the doubly labeled Rh6G-5^′-cTAR-3^′-Dabcyl derivative.
(A) Emission spectra of Rh6G-cTAR-Dabcyl (0.1 μM) recorded in the absence (circle) or in the presence of NCp7(11-55) (1 μM) (square). […] Excitation wavelength was 520 nm. […] Excitation wavelength was 520 nm.
An extinction coefficient at 260 nm of 521,910 M^–1 x cm^–1 was used for cTAR. All experiments were performed at 20°C in 25 mM Tris–HCl, pH 7.5, 30 mM NaCl, and 0.2 mM MgCl2[28].
Absorption spectra were recorded on a Cary 400 spectrophotometer. Fluorescence spectra were recorded at 20°C on a Fluorolog spectrofluorometer (Horiba, Jobin-Yvon), equipped with a thermostated cell compartment. Excitation wavelength was 295 nm and 520 nm, for NC(11-55) and Rh6G-5^′-cTAR-3^′-Dabcyl, respectively. The spectra were corrected for dilution and buffer fluorescence. The protein spectra were additionally corrected for screening effects due to the zinc ejecting agent, using:

HIV-1 virus particles [5] = experiment: Virion-associated p24 of pre-treated, compound-cleared virus (ELISA); settings: compound-cleared HIV-1 virus stock
[6] = system: HIV-1 IIIB chronically-infected HuT-78 cells; experiment: Gag processing in virions from HIV-1 IIIB chronically-infected HuT-78 cells (western blot); format: cell-based; settings: HuT-78/IIIB cells treated 43 hours; WDO-217 50, 25 μM; ritonavir 2.7 μM; SRR-SB3 75, 15 μM
Protocol: Recently, it has been shown that this new mechanism involves acetylation of the NCp7 region of Gag, thereby blocking Gag processing.
HIV-1 IIIB virions from persistently infected HuT-78 cells treated with different concentrations of compound were analysed by gel electrophoresis and immunoblotted with antibody against capsid.
Chronically-infected HIV-1 IIIB HuT-78 cells (HuT-78/IIIB) were washed four times with PBS to remove all free virions before treatment and 2 × 10^5 cells were resuspended in 1 ml compound-containing medium for 43 hours at 37°C. Then, virions were prepared from clarified supernatants (10 min at 300 g) by centrifugation at 36670 g for 2 hours at 4°C. Protein from lysed virions were separated by SDS-PAGE on a NuPage® Novex 4-12% Bis-Tris gel (Invitrogen) and transferred on a hydrophobic polyvinylidene difluoride (PVDF) membrane (Amersham Hybond™-P). The blot was blocked overnight at 4°C by 5% dry milk powder in Western blot wash solution (WBWS; PBS + 0.5% Tween 20), washed three times for 5 minutes with WBWS and incubated with a mouse anti-HIV-1 p24 antibody (1:5000) from Abcam. The blot was then washed three times for 5 minutes with WBWS and incubated for 1 h with a goat anti-mouse IgG-HRP secondary antibody (1:2500) from Santa Cruz Biotechnology. […]

HIV-1 IIIB [7] = experiment: MT-4/MTT-assay, protection against virus-induced cytopathic effect; format: cell-based; settings: MT-4 cells, MTT, 5 days after infection
[8] = 10 μM compound, 1 μM NC(11-55), 0.1 μM cTAR

Cn1sc(=N)nc1-c1ccccc1 [WDO-217, 2-methyl-3-phenyl-2H-[1,2,4]thiadiazol-5-ylideneamine]
EC50 (NL4.3/WT): 0.9 ± 0.05 µM | activity against replication of VSV (VSV): inactive | CCID50/ml UG275 subtype A (UG275 subtype A): 2558 CCID50/ml | activity against replication of HSV (HSV): inactive | CCID50/ml UG270 subtype D (UG270 subtype D): 6446 CCID50/ml | CCID50/ml BCF-Dioum subtype G (BCF-Dioum subtype G): 2558 CCID50/ml | viral genomic RNA content after treatment (HIV-1 virus particles [1]): clear decrease | activity against replication of VZV (VZV): inactive | CCID50/ml BZ163 subtype F (BZ163 subtype F): 2558 CCID50/ml | activity against replication of RSV (RSV): inactive | CCID50/ml HIV-2 ROD (HIV-2 ROD; virus incubated 1 h 37°C with 0.2 μM): 1.6 × 10^6 CCID50/ml | CCID50/ml HIV-2 ROD (HIV-2 ROD; virus incubated 1 h 37°C with 1 μM): 1 × 10^6 CCID50/ml | CCID50/ml HIV-2 ROD (HIV-2 ROD; virus incubated 1 h 37°C with 5 μM): 2.1 × 10^6 CCID50/ml | CCID50/ml HIV-2 ROD (HIV-2 ROD; virus incubated 1 h 37°C with 25 μM): 0 CCID50/ml | CCID50/ml HIV-2 ROD (HIV-2 ROD; virus incubated 1 h 37°C with 625 μM): 0 CCID50/ml | Infectivity of pre-incubated HIV-2 virus (HIV-2 ROD; virus incubated at 26, 130 and 650 μM, 1 h 37°C): no longer able to infect cells | EC50 (AZTR HIV-1 strain): 1.5 ± 0.6 µM | CCID50/ml ETH2220 subtype C (ETH2220 subtype C): 2558 CCID50/ml | EC50 (HIV-1 IIIB [2]): 1.04 ± 0.2 µM | covalent complex between NC(11-55) and compound (NC(11-55) [3]): no covalent complex | time to 50% inhibition of NC(11-55)-induced cTAR destabilization (NC(11-55) [4]; [8]): less than 5 minutes | time to complete inhibition of NC(11-55)-induced cTAR destabilization (NC(11-55) [4]; [8]): 50 min | NC(11-55) ability to destabilize cTAR after preincubation (NC(11-55) [4]; molar ratio 10:1 compound to NC(11-55)): full loss | virus-associated p24 core protein after treatment (HIV-1 virus particles [5]): did not affect | accumulation of unprocessed Gag polyprotein in progeny virus [6]: did not result in a drastic accumulation | EC50 (HIV-1 IIIB [7]; Human immunodeficiency virus 1, IIIB, MT4, 120 h): 5 ± 3 µM | EC50 (HIV-1 IIIB [7]): 7.9 ± 3.3 µM
